Like-named read-outs stand apart in the source and are kept apart here.
Assays:
PC-3 cells = assay: In vitro GRPR specificity assay (uptake with or without NOTA-PEG2-RM26 block); type: cell-based, human
Method: After discarding the medium, the cells were washed with cold (4 °C) phosphate-buffered saline containing 1% w/v bovine serum albumin (PBS/BSA). The radiopeptides (Cf = 1 nM in 1 mL PBS/BSA) were added to all wells. A subset of wells was also treated with an excess of unlabeled GRPR-binding peptide NOTA-PEG2-RM26 (Bjäreback et al. [2025]) (Cf = 1 µM in 1 mL PBS/BSA) to block GRPR. After incubation for 1 h at 37 °C, the supernatant was removed, and the cells were washed and then collected by treating them with 1 M NaOH. The activity of the collected samples was measured with the gamma counter. This assay was performed in triplicate for each radiopeptide.

[1] = Biodistribution in mice bearing PC-3 xenografts; type: in vivo, Balb/c nu/nu mice; settings: mouse, total radioactivity; for tissue uptake at 4 h / tissue uptake dose at 4 h: 4 h pi; for tissue uptake at 24 h / tissue uptake dose at 24 h: 24 h pi
Method: (§1) Each mouse was xenografted with a subcutaneous injection of 8 × 10⁶ PC-3 cells in the right hind leg. After approximately 4 weeks, the animals were injected into the tail vein with 100 µL of radiopeptide (100 pmol—110–130 kBq, diluted in PBS/BSA). Four animals were used for each time point per peptide. […] At the determined time points, the mice were euthanized, organs were collected and weighed, and their activity content was measured in the gamma counter. Results were presented as the percentage of injected activity per gram (%IA/g) for the collected organs, and the percentage of injected activity (%IA) for the gastrointestinal tract (GI) and the carcass. […] Statistical analysis was performed with GraphPad Prism 10 using two way ANOVA with Tuckey’s or Šidák’a post hoc analysis.

PC-3 xenografts = assay: Biodistribution in mice bearing PC-3 xenografts; type: in vivo, Balb/c nu/nu mice; settings: PC-3 xenografted mice, between 4 and 24 h pi
Method: as §1

[2] = In vivo stability: intact radiopeptide in peripheral mouse blood 5 min pi, radio-HPLC; settings: for Percentage of intact peptide, Entresto: blood 5 min pi
Method: Two animals per peptide were injected intravenously with a bolus of test radioligand (50 MBq, 2 nmol of peptide in 100 μL PBS/EtOH v/v 9:1) – Control group. To inhibit NEP, additional groups of two mice per compound were orally treated with 12 mg Entresto® (Novartis, Basel, Switzerland) 30 min before receiving the intravenous injection—Entresto group. Five minutes post-injection (pi), the animals were euthanized, and the blood was collected and immediately mixed with EDTA (0.1 mM, 40 μL) in Eppendorf tubes on ice. The mixture was spun at 2000 g for 10 min at 4 °C in an Eppendorf Centrifuge 5430 R (Eppendorf AG, Hamburg, Germany), and the plasma was collected and diluted with an equal volume of MeCN (4 °C). After a second centrifugation at 15,000 g and 4 °C for 10 min, the supernatant was collected in an Eppendorf tube and concentrated to 50–100 μL at 50 °C using a mild stream of N2. PBS was added to the samples to reach a final volume of 200 μL, and the solutions were filtered through a syringe filter (0.22 μm, 13 mm, VWR International, Radnor, USA). The filtered solution was analyzed by reversed-phase radio-HPLC to determine the percentage of intact peptides. The peak corresponding to the intact peptide was identified by injection of an aliquot of the labeling solution.

[3] = Balb/c nu/nu, blood, iv, 100 pmol, PC-3 xenografted Balb/c nu/nu mice, iv 100 pmol, mean ± SD, n = 4, read-out: Blood activity uptake
[4] = Balb/c nu/nu, bone, iv, 100 pmol, PC-3 xenografted Balb/c nu/nu mice, iv 100 pmol, mean ± SD, n = 4, read-out: Bone activity uptake
[5] = Balb/c nu/nu, kidneys, iv, 100 pmol, PC-3 xenografted Balb/c nu/nu mice, iv 100 pmol, mean ± SD, n = 4, read-out: Kidneys activity uptake
[6] = Balb/c nu/nu, liver, iv, 100 pmol, PC-3 xenografted Balb/c nu/nu mice, iv 100 pmol, mean ± SD, n = 4, read-out: Liver activity uptake
[7] = Balb/c nu/nu, lungs, iv, 100 pmol, PC-3 xenografted Balb/c nu/nu mice, iv 100 pmol, mean ± SD, n = 4, read-out: Lungs activity uptake
[8] = Balb/c nu/nu, muscle, iv, 100 pmol, PC-3 xenografted Balb/c nu/nu mice, iv 100 pmol, mean ± SD, n = 4, read-out: Muscle activity uptake
[9] = Balb/c nu/nu, pancreas, iv, 100 pmol, PC-3 xenografted Balb/c nu/nu mice, iv 100 pmol, mean ± SD, n = 4, read-out: Pancreas activity uptake
[10] = Balb/c nu/nu, small intestine, iv, 100 pmol, PC-3 xenografted Balb/c nu/nu mice, iv 100 pmol, mean ± SD, n = 4, read-out: Small Int. activity uptake
[11] = Balb/c nu/nu, spleen, iv, 100 pmol, PC-3 xenografted Balb/c nu/nu mice, iv 100 pmol, mean ± SD, n = 4, read-out: Spleen activity uptake
[12] = Balb/c nu/nu, stomach, iv, 100 pmol, PC-3 xenografted Balb/c nu/nu mice, iv 100 pmol, mean ± SD, n = 4, read-out: Stomach activity uptake
[13] = Balb/c nu/nu, tumor, iv, 100 pmol, PC-3 xenografted Balb/c nu/nu mice, iv 100 pmol, mean ± SD, n = 4, read-out: Tumor activity uptake
[14] = carcass, PC-3 xenografted Balb/c nu/nu mice, iv 100 pmol, mean ± SD, n = 4, read-out: Body activity uptake
[15] = gastrointestinal tract with content, PC-3 xenografted Balb/c nu/nu mice, iv 100 pmol, mean ± SD, n = 4, read-out: GI activity uptake

With `CC(C)C[C@H](NC(=O)C[C@H](O)[C@H](CC(C)C)NC(=O)[C@H](Cc1c[nH]cn1)NC(=O)CN(C)C(=O)[C@@H](NC(=O)[C@H](C)NC(=O)[C@](C)(Cc1c[nH]c2ccccc12)NC(=O)[C@H](CCC(N)=O)NC(=O)[C@@H](Cc1ccccc1)NC(=O)CN1CCC(NC(=O)COCCOCCNC(=O)CCC(C(=O)O)N2CCN(CC(=O)O)CCN(CC(=O)O)CCN(CC(=O)O)CC2)CC1)C(C)C)C(N)=O` (stereo partly drawn) [[^177Lu]Lu-PKB2, metal not drawn] the “in vitro binding specificity” value (PC-3 cells; 1 nM radiopeptide, 1 h at 37 °C, block with 1 µM NOTA-PEG2-RM26, n = 3) was “GRPR-mediated activity uptake”, the “total cellular activity uptake (rank among the three radiopeptides)” value (PC-3 cells; 1 nM, 37 °C, n = 3) was “lowest” and the tissue uptake at 2 h ([1]; Balb/c nu/nu, blood, iv, 100 pmol, PC-3 xenografted Balb/c nu/nu mice, iv 100 pmol, 2 h pi, mean ± SD, n = 4, read-out: Blood activity uptake) was 0.13 ± 0.05 %ID/g. It also gave a tissue uptake at 4 h [1, 3] of 0.07 ± 0.03 %ID/g, a tissue uptake at 24 h [1, 3] of 0.01 ± 0.01 %ID/g and a tissue uptake at 2 h ([1]; Balb/c nu/nu, blood, iv, PC-3 xenografted Balb/c nu/nu mice, iv 100 pmol, 2 h pi blocked (co-injected 100-fold molar excess NOTA-PEG2-RM26), mean ± SD, n = 3, read-out: Blood activity uptake) of 0.06 ± 0.02 %ID/g. The tissue uptake at 2 h ([1]; Balb/c nu/nu, blood, lungs, spleen, muscle, bone, iv, 100 pmol, PC-3 xenografted mice, 2 h pi, read-out: activity uptake in non-target organs (blood, lungs, spleen, muscle, and bone)) was under 0.6 %ID/g, the tissue uptake at 2 h ([1]; Balb/c nu/nu, bone, iv, 100 pmol, PC-3 xenografted Balb/c nu/nu mice, iv 100 pmol, 2 h pi, mean ± SD, n = 4, read-out: Bone activity uptake) was 0.13 ± 0.07 %ID/g and the tissue uptake at 4 h [1, 4] was 0.14 ± 0.05 %ID/g. It also gave a tissue uptake at 24 h [1, 4] of 0.09 ± 0.04 %ID/g, a tissue uptake at 2 h ([1]; Balb/c nu/nu, bone, iv, PC-3 xenografted Balb/c nu/nu mice, iv 100 pmol, 2 h pi blocked (co-injected 100-fold molar excess NOTA-PEG2-RM26), mean ± SD, n = 3, read-out: Bone activity uptake) of 0.13 ± 0.03 %ID/g and a tissue uptake dose ([1]; Balb/c nu/nu, gastrointestinal tract with content, iv, 100 pmol, PC-3 xenografted mice, all time points (2, 4, 24 h pi), read-out: activity uptake for the GI with content) of under 2 %ID. The tissue uptake at 2 h ([1]; Balb/c nu/nu, kidneys, iv, 100 pmol, PC-3 xenografted Balb/c nu/nu mice, iv 100 pmol, 2 h pi, mean ± SD, n = 4, read-out: Kidneys activity uptake) was 8.9 ± 2.5 %ID/g, the tissue uptake at 4 h [1, 5] was 9.5 ± 2.1 %ID/g and the tissue uptake at 24 h [1, 5] was 5.5 ± 0.6 %ID/g. It also gave a tissue uptake at 2 h ([1]; Balb/c nu/nu, kidneys, iv, PC-3 xenografted Balb/c nu/nu mice, iv 100 pmol, 2 h pi blocked (co-injected 100-fold molar excess NOTA-PEG2-RM26), mean ± SD, n = 3, read-out: Kidneys activity uptake) of 7.6 ± 1.2 %ID/g, a tissue uptake at 2 h ([1]; Balb/c nu/nu, liver, iv, 100 pmol, PC-3 xenografted Balb/c nu/nu mice, iv 100 pmol, 2 h pi, mean ± SD, n = 4, read-out: Liver activity uptake) of 0.24 ± 0.05 %ID/g and a tissue uptake at 4 h [1, 6] of 0.2 ± 0.03 %ID/g. It also gave a tissue uptake at 24 h [1, 6] of 0.14 ± 0.02 %ID/g, a tissue uptake at 2 h ([1]; Balb/c nu/nu, liver, iv, PC-3 xenografted Balb/c nu/nu mice, iv 100 pmol, 2 h pi blocked (co-injected 100-fold molar excess NOTA-PEG2-RM26), mean ± SD, n = 3, read-out: Liver activity uptake) of 0.2 ± 0.02 %ID/g and a tissue uptake at 4 h [1, 7] of 0.3 ± 0.2 %ID/g. It also gave a tissue uptake at 24 h [1, 7] of 0.07 ± 0.01 %ID/g, a tissue uptake at 2 h ([1]; Balb/c nu/nu, lungs, iv, PC-3 xenografted Balb/c nu/nu mice, iv 100 pmol, 2 h pi blocked (co-injected 100-fold molar excess NOTA-PEG2-RM26), mean ± SD, n = 3, read-out: Lungs activity uptake) of 0.21 ± 0.03 %ID/g and a tissue uptake at 2 h ([1]; Balb/c nu/nu, muscle, iv, 100 pmol, PC-3 xenografted Balb/c nu/nu mice, iv 100 pmol, 2 h pi, mean ± SD, n = 4, read-out: Muscle activity uptake) of 0.07 ± 0.06 %ID/g. The tissue uptake at 4 h [1, 8] was 0.05 ± 0.02 %ID/g, the tissue uptake at 24 h [1, 8] was 0.02 ± 0.01 %ID/g and the tissue uptake at 2 h ([1]; Balb/c nu/nu, muscle, iv, PC-3 xenografted Balb/c nu/nu mice, iv 100 pmol, 2 h pi blocked (co-injected 100-fold molar excess NOTA-PEG2-RM26), mean ± SD, n = 3, read-out: Muscle activity uptake) was 0.04 ± 0.01 %ID/g. It also gave a tissue uptake at 2 h ([1]; Balb/c nu/nu, pancreas, iv, 100 pmol, PC-3 xenografted Balb/c nu/nu mice, iv 100 pmol, 2 h pi, mean ± SD, n = 4, read-out: Pancreas activity uptake) of 7.3 ± 3 %ID/g, a tissue uptake at 4 h [1, 9] of 2.9 ± 1 %ID/g and a tissue uptake at 24 h [1, 9] of 0.43 ± 0.09 %ID/g. For the same molecule, the tissue uptake at 2 h ([1]; Balb/c nu/nu, small intestine, iv, 100 pmol, PC-3 xenografted Balb/c nu/nu mice, iv 100 pmol, 2 h pi, mean ± SD, n = 4, read-out: Small Int. activity uptake) was 0.8 ± 0.5 %ID/g, the tissue uptake at 4 h [1, 10] was 0.5 ± 0.2 %ID/g and the tissue uptake at 24 h [1, 10] was 0.07 ± 0.04 %ID/g. It also gave a tissue uptake at 2 h ([1]; Balb/c nu/nu, small intestine, iv, PC-3 xenografted Balb/c nu/nu mice, iv 100 pmol, 2 h pi blocked (co-injected 100-fold molar excess NOTA-PEG2-RM26), mean ± SD, n = 3, read-out: Small Int. activity uptake) of 0.3 ± 0.1 %ID/g, a tissue uptake at 2 h ([1]; Balb/c nu/nu, spleen, iv, 100 pmol, PC-3 xenografted Balb/c nu/nu mice, iv 100 pmol, 2 h pi, mean ± SD, n = 4, read-out: Spleen activity uptake) of 0.15 ± 0.07 %ID/g and a tissue uptake at 4 h [1, 11] of 0.15 ± 0.06 %ID/g. The tissue uptake at 24 h [1, 11] was 0.11 ± 0.04 %ID/g, the tissue uptake at 2 h ([1]; Balb/c nu/nu, spleen, iv, PC-3 xenografted Balb/c nu/nu mice, iv 100 pmol, 2 h pi blocked (co-injected 100-fold molar excess NOTA-PEG2-RM26), mean ± SD, n = 3, read-out: Spleen activity uptake) was 0.12 ± 0.04 %ID/g and the tissue uptake at 4 h [1, 12] was 1.3 ± 0.2 %ID/g. It also gave a tissue uptake at 24 h [1, 12] of 0.14 ± 0.07 %ID/g, a tissue uptake at 2 h ([1]; Balb/c nu/nu, stomach, iv, PC-3 xenografted Balb/c nu/nu mice, iv 100 pmol, 2 h pi blocked (co-injected 100-fold molar excess NOTA-PEG2-RM26), mean ± SD, n = 3, read-out: Stomach activity uptake) of 0.36 ± 0.07 %ID/g and a tissue uptake at 2 h ([1]; Balb/c nu/nu, stomach, small intestines, iv, 100 pmol, PC-3 xenografted mice, 2 h pi, read-out: activity uptake in the stomach and small intestines) of under 2.5 %ID/g. For the same molecule, the tissue uptake at 2 h ([1]; Balb/c nu/nu, tumor, iv, 100 pmol, PC-3 xenografted Balb/c nu/nu mice, iv 100 pmol, 2 h pi, mean ± SD, n = 4, read-out: Tumor activity uptake) was 15.8 ± 3.7 %ID/g, the tissue uptake at 4 h [1, 13] was 15.3 ± 1.4 %ID/g and the tissue uptake at 24 h [1, 13] was 12.1 ± 1.3 %ID/g. For the same molecule, the tissue uptake at 2 h ([1]; Balb/c nu/nu, tumor, iv, PC-3 xenografted Balb/c nu/nu mice, iv 100 pmol, 2 h pi blocked (co-injected 100-fold molar excess NOTA-PEG2-RM26), mean ± SD, n = 3, read-out: Tumor activity uptake) was 3.1 ± 0.9 %ID/g, the tissue uptake dose at 2 h ([1]; carcass, PC-3 xenografted Balb/c nu/nu mice, iv 100 pmol, 2 h pi, mean ± SD, n = 4, read-out: Body activity uptake) was 1.8 ± 1.3 %ID and the tissue uptake dose at 4 h [1, 14] was 2.3 ± 0.8 %ID. It also gave a tissue uptake dose at 24 h [1, 14] of 0.5 ± 0.1 %ID, a tissue uptake dose at 2 h ([1]; gastrointestinal tract with content, PC-3 xenografted Balb/c nu/nu mice, iv 100 pmol, 2 h pi, mean ± SD, n = 4, read-out: GI activity uptake) of 1.5 ± 0.4 %ID and a tissue uptake dose at 4 h [1, 15] of 0.7 ± 0.2 %ID. The tissue uptake dose at 24 h [1, 15] was 0.3 ± 0.2 %ID, the “tumor retention of activity” value (PC-3 xenografts) was “around 80%” and the “Percentage of intact peptide, Entresto” value ([2]; NMRI mice, 12 mg Entresto orally 30 min before injection, recorded value n1) was 92%. For the same molecule, the “Percentage of intact peptide, Entresto” value ([2]; NMRI mice, 12 mg Entresto orally 30 min before injection, recorded value n2) was 94%, the “Percentage of intact peptide, Entresto” value ([2]; healthy NMRI mice, 12 mg Entresto orally 30 min before iv injection (NEP inhibition), radio-HPLC, mean of n = 2) was 93% and the “Percentage of intact peptide, Control” value ([2]; healthy NMRI mice, iv 50 MBq, 2 nmol, peripheral blood 5 min pi, radio-HPLC, mean of n = 2) was 85% [81% - 90%].
